Reference: PubChem BioAssay AID2060599 (Molecular Pharmacology Branch, DTP, NCI, 2025)

tested on: 817829-284-R-J1-PDC complex spheroids, viability; test: Anticancer human tumor 817829-284-R-J1-PDC patient-derived colon adenocarcinoma cell line growth inhibition [CLK]; settings: second compound 0.316 µM; first compound 0.316 µM; stronger effect = lower value
Summary of the method: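 Multi-cell-type spheroids combined patient-derived tumor cells with HUVEC endothelial cells and human mesenchymal stem cells. Paired agents were dosed in half-log steps down from about clinical Cmax, or from 10 microM where Cmax was unknown.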
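Note: spheroids exposed to the agents for seven days before readout.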

Structure (SMILES)	viability, T/C [%]
CC(CO)NC(=O)c1cc(-c2ccc(Cl)cc2)nn(-c2cnn(C)c2)c1=O (stereo unspecified) + CN1CCN(c2cc(C(=O)Nc3cc4cc(-c5cnn(C)c5)ccc4cn3)ccn2)CC1	2.62
CC(Nc1ccc2c(c1)OCCn1cc(N3C(=O)OCC3C(F)F)nc1-2)C(N)=O (stereo unspecified) + CN1CCN(c2cc(C(=O)Nc3cc4cc(-c5cnn(C)c5)ccc4cn3)ccn2)CC1	0.89
CCN1CCN(Cc2ccc(Nc3ncc(F)c(-c4cc(F)c5nc(C)n(C(C)C)c5c4)n3)nc2)CC1 + CN1CCN(c2cc(C(=O)Nc3cc4cc(-c5cnn(C)c5)ccc4cn3)ccn2)CC1	2.31
COc1c(OCCCN2CCOCC2)ccc2c3n(c(=NC(=O)c4cnc(N)nc4)nc12)CCN3 + CN1CCN(c2cc(C(=O)Nc3cc4cc(-c5cnn(C)c5)ccc4cn3)ccn2)CC1	0.56

same assay, conditions: second compound 0.316 µM; first compound 1 µM; stronger effect = lower value

Structure (SMILES)	viability, T/C [%]
C#Cc1c(F)ccc2cc(O)cc(-c3ncc4c(N5CC6CCC(C5)N6)nc(OCC56CCCN5CC(F)C6)nc4c3F)c12 (stereo unspecified) + CN1CCN(c2cc(C(=O)Nc3cc4cc(-c5cnn(C)c5)ccc4cn3)ccn2)CC1	2.39
CC(CO)NC(=O)c1cc(-c2ccc(Cl)cc2)nn(-c2cnn(C)c2)c1=O (stereo unspecified) + CN1CCN(c2cc(C(=O)Nc3cc4cc(-c5cnn(C)c5)ccc4cn3)ccn2)CC1	2.67
CC(Nc1ccc2c(c1)OCCn1cc(N3C(=O)OCC3C(F)F)nc1-2)C(N)=O (stereo unspecified) + CN1CCN(c2cc(C(=O)Nc3cc4cc(-c5cnn(C)c5)ccc4cn3)ccn2)CC1	0.83
CCN1CCN(Cc2ccc(Nc3ncc(F)c(-c4cc(F)c5nc(C)n(C(C)C)c5c4)n3)nc2)CC1 + CN1CCN(c2cc(C(=O)Nc3cc4cc(-c5cnn(C)c5)ccc4cn3)ccn2)CC1	0.61
COc1c(OCCCN2CCOCC2)ccc2c3n(c(=NC(=O)c4cnc(N)nc4)nc12)CCN3 + CN1CCN(c2cc(C(=O)Nc3cc4cc(-c5cnn(C)c5)ccc4cn3)ccn2)CC1	0.47

same assay, conditions: second compound 0.316 µM; first compound 3.16 µM; stronger effect = lower value

Structure (SMILES)	viability, T/C [%]
C#Cc1c(F)ccc2cc(O)cc(-c3ncc4c(N5CC6CCC(C5)N6)nc(OCC56CCCN5CC(F)C6)nc4c3F)c12 (stereo unspecified) + CN1CCN(c2cc(C(=O)Nc3cc4cc(-c5cnn(C)c5)ccc4cn3)ccn2)CC1	2.31
CC(CO)NC(=O)c1cc(-c2ccc(Cl)cc2)nn(-c2cnn(C)c2)c1=O (stereo unspecified) + CN1CCN(c2cc(C(=O)Nc3cc4cc(-c5cnn(C)c5)ccc4cn3)ccn2)CC1	2.25
CC(Nc1ccc2c(c1)OCCn1cc(N3C(=O)OCC3C(F)F)nc1-2)C(N)=O (stereo unspecified) + CN1CCN(c2cc(C(=O)Nc3cc4cc(-c5cnn(C)c5)ccc4cn3)ccn2)CC1	0.72

same assay, conditions: second compound 0.316 µM; first compound 10 µM; stronger effect = lower value

Structure (SMILES)	viability, T/C [%]
C#Cc1c(F)ccc2cc(O)cc(-c3ncc4c(N5CC6CCC(C5)N6)nc(OCC56CCCN5CC(F)C6)nc4c3F)c12 (stereo unspecified) + CN1CCN(c2cc(C(=O)Nc3cc4cc(-c5cnn(C)c5)ccc4cn3)ccn2)CC1	1.5
CC(CO)NC(=O)c1cc(-c2ccc(Cl)cc2)nn(-c2cnn(C)c2)c1=O (stereo unspecified) + CN1CCN(c2cc(C(=O)Nc3cc4cc(-c5cnn(C)c5)ccc4cn3)ccn2)CC1	2.13
CC(Nc1ccc2c(c1)OCCn1cc(N3C(=O)OCC3C(F)F)nc1-2)C(N)=O (stereo unspecified) + CN1CCN(c2cc(C(=O)Nc3cc4cc(-c5cnn(C)c5)ccc4cn3)ccn2)CC1	0.96

same assay, conditions: second compound 1 µM; first compound 0.00316 µM; stronger effect = lower value

Structure (SMILES)	viability, T/C [%]
CCN1CCN(Cc2ccc(Nc3ncc(F)c(-c4cc(F)c5nc(C)n(C(C)C)c5c4)n3)nc2)CC1 + CN1CCN(c2cc(C(=O)Nc3cc4cc(-c5cnn(C)c5)ccc4cn3)ccn2)CC1	0.17
COc1c(OCCCN2CCOCC2)ccc2c3n(c(=NC(=O)c4cnc(N)nc4)nc12)CCN3 + CN1CCN(c2cc(C(=O)Nc3cc4cc(-c5cnn(C)c5)ccc4cn3)ccn2)CC1	0.08

same assay, conditions: second compound 1 µM; first compound 0.01 µM; stronger effect = lower value

Structure (SMILES)	viability, T/C [%]
CCN1CCN(Cc2ccc(Nc3ncc(F)c(-c4cc(F)c5nc(C)n(C(C)C)c5c4)n3)nc2)CC1 + CN1CCN(c2cc(C(=O)Nc3cc4cc(-c5cnn(C)c5)ccc4cn3)ccn2)CC1	0.12
COc1c(OCCCN2CCOCC2)ccc2c3n(c(=NC(=O)c4cnc(N)nc4)nc12)CCN3 + CN1CCN(c2cc(C(=O)Nc3cc4cc(-c5cnn(C)c5)ccc4cn3)ccn2)CC1	0.11

same assay, conditions: second compound 1 µM; first compound 0.0316 µM; stronger effect = lower value

Structure (SMILES)	viability, T/C [%]
C#Cc1c(F)ccc2cc(O)cc(-c3ncc4c(N5CC6CCC(C5)N6)nc(OCC56CCCN5CC(F)C6)nc4c3F)c12 (stereo unspecified) + CN1CCN(c2cc(C(=O)Nc3cc4cc(-c5cnn(C)c5)ccc4cn3)ccn2)CC1	0.1
CC(CO)NC(=O)c1cc(-c2ccc(Cl)cc2)nn(-c2cnn(C)c2)c1=O (stereo unspecified) + CN1CCN(c2cc(C(=O)Nc3cc4cc(-c5cnn(C)c5)ccc4cn3)ccn2)CC1	0.11
CC(Nc1ccc2c(c1)OCCn1cc(N3C(=O)OCC3C(F)F)nc1-2)C(N)=O (stereo unspecified) + CN1CCN(c2cc(C(=O)Nc3cc4cc(-c5cnn(C)c5)ccc4cn3)ccn2)CC1	0.08
CCN1CCN(Cc2ccc(Nc3ncc(F)c(-c4cc(F)c5nc(C)n(C(C)C)c5c4)n3)nc2)CC1 + CN1CCN(c2cc(C(=O)Nc3cc4cc(-c5cnn(C)c5)ccc4cn3)ccn2)CC1	0.08
COc1c(OCCCN2CCOCC2)ccc2c3n(c(=NC(=O)c4cnc(N)nc4)nc12)CCN3 + CN1CCN(c2cc(C(=O)Nc3cc4cc(-c5cnn(C)c5)ccc4cn3)ccn2)CC1	0.12

same assay, conditions: second compound 1 µM; first compound 0.1 µM; stronger effect = lower value

Structure (SMILES)	viability, T/C [%]
C#Cc1c(F)ccc2cc(O)cc(-c3ncc4c(N5CC6CCC(C5)N6)nc(OCC56CCCN5CC(F)C6)nc4c3F)c12 (stereo unspecified) + CN1CCN(c2cc(C(=O)Nc3cc4cc(-c5cnn(C)c5)ccc4cn3)ccn2)CC1	0.14
CC(CO)NC(=O)c1cc(-c2ccc(Cl)cc2)nn(-c2cnn(C)c2)c1=O (stereo unspecified) + CN1CCN(c2cc(C(=O)Nc3cc4cc(-c5cnn(C)c5)ccc4cn3)ccn2)CC1	0.12
